{
  "source": "patent US20240059677A1",
  "about": "“SUBSTITUTED PYRIMIDINE DERIVATIVES AS NICOTINIC ACETYLCHOLINESTERASE RECEPTOR ALPHA 6 MODULATOR” (priority 2020, published 2024)",
  "biological_target": "T1, human nAChRα6-α3 chimera, in addition to β2 and β3^V273S subunits (Homo sapiens, UniProt P32297+Q15825)",
  "T1 construct": "expressed in transfected cells",
  "T1 sequence (Q05901 25-458 V273S)": "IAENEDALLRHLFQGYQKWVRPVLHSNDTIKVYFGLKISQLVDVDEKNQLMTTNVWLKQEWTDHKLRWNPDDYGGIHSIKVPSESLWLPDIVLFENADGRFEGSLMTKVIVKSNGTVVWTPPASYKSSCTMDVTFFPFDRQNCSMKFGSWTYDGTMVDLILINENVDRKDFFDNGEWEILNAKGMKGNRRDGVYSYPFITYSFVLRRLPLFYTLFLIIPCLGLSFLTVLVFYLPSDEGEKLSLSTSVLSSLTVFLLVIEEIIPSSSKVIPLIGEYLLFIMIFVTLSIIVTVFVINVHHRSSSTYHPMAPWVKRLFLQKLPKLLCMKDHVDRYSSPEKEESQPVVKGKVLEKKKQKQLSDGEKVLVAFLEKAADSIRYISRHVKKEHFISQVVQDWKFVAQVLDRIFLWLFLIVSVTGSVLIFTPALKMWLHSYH",
  "T1 sequence (P17787 26-502, stated change not applied, further chain)": "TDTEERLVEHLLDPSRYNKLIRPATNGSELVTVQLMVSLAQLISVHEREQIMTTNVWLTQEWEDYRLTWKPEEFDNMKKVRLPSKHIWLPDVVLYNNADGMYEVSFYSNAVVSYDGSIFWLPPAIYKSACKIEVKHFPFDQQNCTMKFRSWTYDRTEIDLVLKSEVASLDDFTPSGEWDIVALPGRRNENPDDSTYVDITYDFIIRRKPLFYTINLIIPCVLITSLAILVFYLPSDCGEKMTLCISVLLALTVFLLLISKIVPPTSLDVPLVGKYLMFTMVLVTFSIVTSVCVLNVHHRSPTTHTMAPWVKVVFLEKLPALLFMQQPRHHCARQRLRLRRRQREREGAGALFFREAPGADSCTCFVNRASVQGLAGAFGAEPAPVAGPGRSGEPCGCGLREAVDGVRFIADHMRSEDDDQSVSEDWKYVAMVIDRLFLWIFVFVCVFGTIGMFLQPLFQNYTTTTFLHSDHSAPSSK",
  "T1 sequence (Q15825+P32297 fused with the stated changes)": "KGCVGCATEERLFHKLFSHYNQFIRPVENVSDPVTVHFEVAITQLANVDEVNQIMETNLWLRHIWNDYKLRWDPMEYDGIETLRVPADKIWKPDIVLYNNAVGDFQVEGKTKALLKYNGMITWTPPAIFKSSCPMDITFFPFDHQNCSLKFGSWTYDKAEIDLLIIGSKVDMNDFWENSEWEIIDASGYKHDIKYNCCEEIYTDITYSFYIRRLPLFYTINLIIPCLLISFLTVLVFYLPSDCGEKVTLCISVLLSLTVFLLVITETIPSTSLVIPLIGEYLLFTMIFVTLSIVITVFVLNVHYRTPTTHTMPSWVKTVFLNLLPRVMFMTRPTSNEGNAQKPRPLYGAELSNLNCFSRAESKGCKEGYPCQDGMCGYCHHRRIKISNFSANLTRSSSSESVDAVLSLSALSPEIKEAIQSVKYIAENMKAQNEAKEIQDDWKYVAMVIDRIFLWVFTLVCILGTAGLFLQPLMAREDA",
  "assay": "fluorescence-based calcium assay: inhibition of nicotine stimulated nAChRα6 activity (FLIPR)",
  "details": "HEK cell line stably expressing the receptor; 10 min pre-incubation, nicotine EC80; 10-point curve, duplicate wells; read-out: IC50",
  "method": "The ability of the test compounds to inhibit nicotine stimulated nAChRα6 activity was determined in a fluorescence-based calcium assay. Compound activity was determined using a HEK cell line stably expressing a human nAChRα6-α3 chimera, in addition to β2 and β3^V273S subunits (as in Capelli et al, Br J Pharmacol 163(2): 313-29 2011). In this cell line, nicotine stimulated an increase in intracellular calcium concentration, measured as an increase in fluorescence when cells were incubated with a calcium sensitive dye. Test compounds were pre-incubated with cells prior to nicotine stimulation to detect any reduction in the magnitude of the nicotine response.\nThe day prior to the assay, compounds were serially diluted in DMSO (200× final assay concentration (FAC)), in 384-well plates which were then stored in the dark at room temperature (RT) until use. Cells were seeded at 20 k/well in black, poly-D-lysine coated, clear bottom 384-well plates and incubated for 4 hours at 37° C., followed by overnight incubation at 30° C. The following day, the DMSO compound plate was diluted 1:20 (10×FAC) in assay buffer (HEPES buffered saline solution with 10 mM HEPES, 0.1% bovine serum albumin, 1 mM probenecid). A nicotine solution was prepared in assay buffer (7×FAC) and dispensed into a 384-well plate. The growth media was removed from the cell plate, replaced with 53 μl calcium dye/well (Calcium 5; Molecular Devices) and the plate incubated at 30° C. for 45 minutes. Test compounds were then added to the cells (7 μl of 10×FAC) and incubated for 10 minutes, after which nicotine EC80 (10 μl of 7×FAC) was added and changes in fluorescence measured using a FLIPR plate reader (Molecular Devices).\nCompound activity was examined using a 10-point, half-log concentration-response range and each concentration was tested in duplicate wells.",
  "data": [
    {"molecule": "COc1ccc(-c2nnc(NC3CCCN(C)C3)nc2C)c(F)c1", "note": "(single isomer, unassigned) [Example 69a, 6-(2-fluoro-4-methoxyphenyl)-5-methyl-N-(1-methylpiperidin-3-yl)-1,2,4-triazin-3-amine]", "values": [
      {"measurement": "IC50", "value": 436, "unit": "nM"}
    ]},
    {"molecule": "COc1ccc(-c2nnc(NC3CCCN(C)C3)nc2C)c(F)c1", "note": "(single isomer, unassigned) [Example 69b, 6-(2-fluoro-4-methoxyphenyl)-5-methyl-N-(1-methylpiperidin-3-yl)-1,2,4-triazin-3-amine]", "values": [
      {"measurement": "IC50", "value": 309, "unit": "nM"}
    ]},
    {"molecule": "Cc1nc(NCC2CCCN2C)nnc1-c1ccc(F)cc1F", "note": "(single isomer, unassigned) [Example 74a, 6-(2,4-difluorophenyl)-5-methyl-N-((1-methylpyrrolidin-2-yl)methyl)-1,2,4-triazin-3-amine]", "values": [
      {"measurement": "IC50", "value": 693, "unit": "nM"}
    ]},
    {"molecule": "Cc1nc(NCC2CCCN2C)nnc1-c1ccc(F)cc1F", "note": "(single isomer, unassigned) [Example 74b, 6-(2,4-difluorophenyl)-5-methyl-N-((1-methylpyrrolidin-2-yl)methyl)-1,2,4-triazin-3-amine]", "values": [
      {"measurement": "IC50", "value": 1470, "unit": "nM"}
    ]},
    {"molecule": "COc1ccc(-c2nnc(NC3CCCN(C(C)C)C3)nc2C)c(F)c1", "note": "(single isomer, unassigned) [Example 76a, 6-(2-fluoro-4-methoxyphenyl)-N-(1-isopropylpiperidin-3-yl)-5-methyl-1,2,4-triazin-3-amine]", "values": [
      {"measurement": "IC50", "value": 118, "unit": "nM"}
    ]},
    {"molecule": "COc1ccc(-c2nnc(NC3CCCN(C(C)C)C3)nc2C)c(F)c1", "note": "(single isomer, unassigned) [Example 76b, 6-(2-fluoro-4-methoxyphenyl)-N-(1-isopropylpiperidin-3-yl)-5-methyl-1,2,4-triazin-3-amine]", "values": [
      {"measurement": "IC50", "value": 107, "unit": "nM"}
    ]},
    {"molecule": "Cc1nc(NC2CCCN(C)C2)ncc1-c1ccc(F)cc1F", "note": "(single isomer, unassigned) [Example 77a, 5-(2,4-difluorophenyl)-4-methyl-N-(1-methylpiperidin-3-yl)pyrimidin-2-amine]", "values": [
      {"measurement": "IC50", "value": 70, "unit": "nM"}
    ]},
    {"molecule": "Cc1nc(NC2CCCN(C)C2)ncc1-c1ccc(F)cc1F", "note": "(single isomer, unassigned) [Example 77b, 5-(2,4-difluorophenyl)-4-methyl-N-(1-methylpiperidin-3-yl)pyrimidin-2-amine]", "values": [
      {"measurement": "IC50", "value": 93, "unit": "nM"}
    ]},
    {"molecule": "CCN1CCC[C@@H](Nc2ncc(-c3ccc(F)cc3F)c(C)n2)C1", "note": "(single isomer, unassigned) [Example 78a]", "values": [
      {"measurement": "IC50", "value": 61, "unit": "nM"}
    ]},
    {"molecule": "Cc1nc(NCC2COCCN2C)ncc1-c1ccc(F)cc1F", "note": "(single isomer, unassigned) [Example 79a, 5-(2,4-difluorophenyl)-4-methyl-N-((4-methylmorpholin-3-yl)methyl) pyrimidin-2-amine]", "values": [
      {"measurement": "IC50", "value": 420, "unit": "nM"}
    ]},
    {"molecule": "Cc1nc(NCC2COCCN2C)ncc1-c1ccc(F)cc1F", "note": "(single isomer, unassigned) [Example 79b, 5-(2,4-difluorophenyl)-4-methyl-N-((4-methylmorpholin-3-yl)methyl) pyrimidin-2-amine]", "values": [
      {"measurement": "IC50", "value": 296, "unit": "nM"}
    ]},
    {"molecule": "Cc1nc(NCC2NCCC2(F)F)ncc1-c1ccc(F)cc1F", "note": "(single isomer, unassigned) [Example 83a, 5-(2,4-difluorophenyl)-N-((3,3-difluoropyrrolidin-2-yl)methyl)-4-methyl-pyrimidin-2-amine]", "values": [
      {"measurement": "IC50", "value": 1150, "unit": "nM"}
    ]},
    {"molecule": "Cc1nc(NCC2NCCC2(F)F)ncc1-c1ccc(F)cc1F", "note": "(single isomer, unassigned) [Example 83b, 5-(2,4-difluorophenyl)-N-((3,3-difluoropyrrolidin-2-yl)methyl)-4-methyl-pyrimidin-2-amine]", "values": [
      {"measurement": "IC50", "value": 456, "unit": "nM"}
    ]},
    {"molecule": "Cc1nc(NCC2N(C)CCC2(F)F)ncc1-c1ccc(F)cc1F", "note": "(single isomer, unassigned) [Example 84a, N-((3,3-difluoro-1-methylpyrrolidin-2-yl)methyl)-5-(2,4-difluorophenyl)-4-methyl-pyrimidin-2-amine]", "values": [
      {"measurement": "IC50", "value": 1530, "unit": "nM"}
    ]},
    {"molecule": "Cc1nc(NCC2N(C)CCC2(F)F)ncc1-c1ccc(F)cc1F", "note": "(single isomer, unassigned) [Example 84b, N-((3,3-difluoro-1-methylpyrrolidin-2-yl)methyl)-5-(2,4-difluorophenyl)-4-methyl-pyrimidin-2-amine]", "values": [
      {"measurement": "IC50", "value": 1650, "unit": "nM"}
    ]},
    {"molecule": "Cc1nc(NC2CCN3CCCC23)ncc1-c1ccc(F)cc1F", "note": "(single isomer, unassigned) [Example 86a, N-(5-(2,4-difluorophenyl)-4-methyl-pyrimidin-2-yl)hexahydro-1H-pyrrolizin-1-amine]", "values": [
      {"measurement": "IC50", "value": 122, "unit": "nM"}
    ]},
    {"molecule": "Cc1nc(NC2CCN3CCCC23)ncc1-c1ccc(F)cc1F", "note": "(single isomer, unassigned) [Example 86b, N-(5-(2,4-difluorophenyl)-4-methyl-pyrimidin-2-yl)hexahydro-1H-pyrrolizin-1-amine]", "values": [
      {"measurement": "IC50", "value": 126, "unit": "nM"}
    ]},
    {"molecule": "Cc1nc(NCC2C(F)CCN2C)ncc1-c1ccc(F)cc1F", "note": "(single isomer, unassigned) [Example 96a, 5-(2,4-difluorophenyl)-N-((3-fluoro-1-methylpyrrolidin-2-yl)methyl)-4-methyl-pyrimidin-2-amine]", "values": [
      {"measurement": "IC50", "value": 151, "unit": "nM"}
    ]},
    {"molecule": "Cc1nc(NCC2C(F)CCN2C)ncc1-c1ccc(F)cc1F", "note": "(single isomer, unassigned) [Example 96b, 5-(2,4-difluorophenyl)-N-((3-fluoro-1-methylpyrrolidin-2-yl)methyl)-4-methyl-pyrimidin-2-amine]", "values": [
      {"measurement": "IC50", "value": 99, "unit": "nM"}
    ]},
    {"molecule": "Cc1nc(NC2CCN3CCCC23)ncc1-c1ccc(OC(F)(F)F)cc1F", "note": "(single isomer, unassigned) [Example 97a, N-(5-(2-fluoro-4-(trifluoromethoxy)phenyl)-4-methyl-pyrimidin-2-yl)hexahydro-1H-pyrrolizin-1-amine]", "values": [
      {"measurement": "IC50", "value": 184, "unit": "nM"}
    ]},
    {"molecule": "Cc1nc(NC2CCN3CCCC23)ncc1-c1ccc(OC(F)(F)F)cc1F", "note": "(single isomer, unassigned) [Example 97b, N-(5-(2-fluoro-4-(trifluoromethoxy)phenyl)-4-methyl-pyrimidin-2-yl)hexahydro-1H-pyrrolizin-1-amine]", "values": [
      {"measurement": "IC50", "value": 152, "unit": "nM"}
    ]},
    {"molecule": "Cc1nc(NC2CCN3CCCC23)ncc1-c1ccc(OC(F)(F)F)cc1F", "note": "(single isomer, unassigned) [Example 97c, N-(5-(2-fluoro-4-(trifluoromethoxy)phenyl)-4-methyl-pyrimidin-2-yl)hexahydro-1H-pyrrolizin-1-amine]", "values": [
      {"measurement": "IC50", "value": 180, "unit": "nM"}
    ]},
    {"molecule": "Cc1nc(NC2CCN3CCCC23)ncc1-c1ccc(OC(F)(F)F)cc1F", "note": "(single isomer, unassigned) [Example 97d, N-(5-(2-fluoro-4-(trifluoromethoxy)phenyl)-4-methyl-pyrimidin-2-yl)hexahydro-1H-pyrrolizin-1-amine]", "values": [
      {"measurement": "IC50", "value": 299, "unit": "nM"}
    ]},
    {"molecule": "Cc1nc(NC[C@@H]2CN(C)CCO2)ncc1-c1ccc(C(F)(F)F)cc1F", "note": "(single isomer, unassigned) [Example 108a]", "values": [
      {"measurement": "IC50", "value": 86, "unit": "nM"}
    ]},
    {"molecule": "Cc1nc(NC[C@H]2CN(C)CCO2)ncc1-c1ccc(C(F)(F)F)cc1F", "note": "(single isomer, unassigned) [Example 108b]", "values": [
      {"measurement": "IC50", "value": 77, "unit": "nM"}
    ]},
    {"molecule": "Cc1nc(NC(C)[C@H]2CCCN2)ncc1-c1ccc(C(F)(F)F)cc1F", "note": "(single isomer, unassigned) [Example 129a, 5-(2-fluoro-4-(trifluoromethyl)phenyl)-4-methyl-N-((1*R)-1-((2R)-pyrrolidin-2-yl)ethyl)pyrimidin-2-amine]", "values": [
      {"measurement": "IC50", "value": 65, "unit": "nM"}
    ]},
    {"molecule": "Cc1nc(NC(C)[C@H]2CCCN2)ncc1-c1ccc(C(F)(F)F)cc1F", "note": "(single isomer, unassigned) [Example 129b, 5-(2-fluoro-4-(trifluoromethyl)phenyl)-4-methyl-N-((1*S)-1-((2R)-pyrrolidin-2-yl)ethyl)pyrimidin-2-amine]", "values": [
      {"measurement": "IC50", "value": 105, "unit": "nM"}
    ]},
    {"molecule": "Cc1nc(NC(C)[C@@H]2CCCN2)ncc1-c1ccc(C(F)(F)F)cc1F", "note": "(single isomer, unassigned) [Example 130a, 5-(2-fluoro-4-(trifluoromethyl)phenyl)-4-methyl-N-((1*R)-1-((2S)-pyrrolidin-2-yl)ethyl)pyrimidin-2-amine]", "values": [
      {"measurement": "IC50", "value": 118, "unit": "nM"}
    ]},
    {"molecule": "Cc1nc(NC(C)[C@@H]2CCCN2)ncc1-c1ccc(C(F)(F)F)cc1F", "note": "(single isomer, unassigned) [Example 130b, 5-(2-fluoro-4-(trifluoromethyl)phenyl)-4-methyl-N-((1*S)-1-((2S)-pyrrolidin-2-yl)ethyl)pyrimidin-2-amine]", "values": [
      {"measurement": "IC50", "value": 49, "unit": "nM"}
    ]},
    {"molecule": "Cc1nc(NC(C)[C@H]2CCCN2C)ncc1-c1ccc(C(F)(F)F)cc1F", "note": "(single isomer, unassigned) [Example 131a, 5-(2-fluoro-4-(trifluoromethyl)phenyl)-4-methyl-N-((1*R)-1-((2R)-1-methylpyrrolidin-2-yl)ethyl)pyrimidin-2-amine]", "values": [
      {"measurement": "IC50", "value": 172, "unit": "nM"}
    ]},
    {"molecule": "Cc1nc(NC(C)[C@H]2CCCN2C)ncc1-c1ccc(C(F)(F)F)cc1F", "note": "(single isomer, unassigned) [Example 131b, 5-(2-fluoro-4-(trifluoromethyl)phenyl)-4-methyl-N-((1*S)-1-((2R)-1-methylpyrrolidin-2-yl)ethyl)pyrimidin-2-amine]", "values": [
      {"measurement": "IC50", "value": 291, "unit": "nM"}
    ]}
  ]
}
